{"source": "patent US6787564B2", "about": "“Optically active clausenamides, process of the preparation thereof, pharmaceutical composition containing the same and their medical use” (Institute of Materia Medica, Chinese Academy of Medical …, priority 2002, dated 2004)", "key": {"[1]": {"system": "dentate gyrus granule cells", "assay": "basal synaptic transmission / LTP in dentate gyrus of hippocampus in anesthetized rats (population spike amplitude)", "assay_type": "in vivo", "text": "Drugs or vehicle injection were delivered via cannula in the lateral cerebral ventricle at final concentration of 2×10^−6 mol/L. The population spike (PS) amplitude was employed as an indication of the level of excitation of the granular cell population in the dentate gyrus. To obtain this measurement, an evoked response was generated in the dentate gyrus granule cell layer by stimulating the pp at low freguency (0.033 Hz) with. single square wave pulses of 0.15 ms duration The LTP formation must accord the following creteria: The PS amplitude increased is over 30% and this high PS amplitude can persist for 40 min."}, "isolated mitochondria": {"system": "isolated mitochondria", "assay": "Bax α induced cytochrome c release from isolated mitochondria", "assay_type": "biochemical", "text": "Studies have shown that the widely existing cytochrome c plays an important role in inducing apoptosis. Cytochrome c is the water soluble cytochrome within the cell and existed at the outside of the mitochondria inner membrane. Cytochrome c could be released into the cytoplasm from the mitochondrial to activate the apoptotic program. This study first purified the His-tagged Bax protein from the bacteria by the Metal Affinity method. When added to the isolated mitochondria, it caused a significant decrease of mitochondrial cytochrome c content (74.43±5.69 ug/mg, pro vs 50.2±3.65 ug/mg pro, p<0.01). […] It means that (−) clausenamide may also act directly on mitochondrial itself to exert its antiapoptotic activity independent Bcl-2. The exact mechanism of action still remains to be determined."}, "weaning mice": {"system": "weaning mice", "assay": "synapses density in weaning mice", "conditions": "mouse, in vivo"}, "[2]": {"system": "β-AP (25-35)-treated rats", "assay": "one trial passive avoidance of β-AP (25-35)-treated rats", "assay_type": "in vivo", "conditions": "n = 9"}, "[3]": {"system": "Bax α high expressing PC12 cells", "assay": "6-OHDA induced apoptosis of Bax α high expressing PC12 cells (TUNEL, flowcytometry)", "assay_type": "cell-based", "conditions": "6-OHDA 100 μM, without drug 49.9%", "text": "1. The Construction of pcDNA3-bax α Plasmid and its Transfection into the PC12 Cell Line\nIn order to increase the expression level of the transfected gene, we first cut some of the 3′ polyA signal sequences from the Bax α cDNA and constructed the intermediate plasmid pBluescript SK-Bax α (pA). Then cut the Bax α cDNA from the intermediate plasmid, religate with the eukaryotic expression plasmid pcDNA3 and obtained the pcDNA3-Bax α recombinant plasmid. […] The recombinated Bax α has −50 bp of 5′ untranslated region(5′-UTR), 576 bp of open reading frame (ORF), and 137 bp of 3′ untranslated region (3′-UTR). The 5′ methionine translation initiation region has the Kozak consensus sequences. So this plasmid may be used to transform the Bax α gene into the mammalian cells and guarantees highly expression of Bax α by using its strong promoter.\nThe Lipofectamine transfecting method was used to transfect the pcDNA3-Bax α into the PC12 cell line. G-418 was used to select the resistant cell clones. […] This experiment successfully produced the Bax α high expressing PC12 cell line.\nUnder normal condition, the Bax α high expressing cells had the same natural apoptosis rate with the neo transfected PC12 cells."}, "Ach, ChAT": {"system": "Ach, ChAT", "assay": "Ach content and ChAT activity in cortex, hippocampus and striatum", "conditions": "in vivo"}, "potassium channel": {"system": "potassium channel", "assay": "potassium channel blockade (nootropic mechanism)"}, "[4]": {"system": "dentate gyrus of hippocampus", "assay": "induction of LTP in hippocampal of rat (population spike amplitude)", "assay_type": "in vivo, SD rats", "conditions": "I.C.V.; means ± SD", "text": "Adult male SD rats were anesthetized to maintain a surgical level. A stainless steel cannula-recording electrode was placed in DG (dentate gyrus) of hippocampus using a stereotaxic instrument. The combination of cannula-recording electrode was constructed by insulating the outside of the cannula, except at the tip and top. In the top noninsulated area, a stainless steel wire was wrapped around the cannula and connected to the amplifier via an amphenol connector. The four pairs optically active clausenamides shown in table 9 was delivered by I.C.V. Responses were evoked via direct stimulation of the performant path (PP) using a stainless steel bipolar stimulating electrode. Constant current stimulation provided by a stimulator was delivered to the stimulating electrode through a Stimulus Isolation Unit.\nThe stimulating electrode was adjusted until a characteristic EPSP was observed under constant current. The evoked responses were amplified on a series alternating current preamplifier, using a microcomputer, and then stored for off-line analysis using DataWave software. The current intensity that elicited a 50% maximal response in each animal was determined and used for all subsequent stimulation. To measure treatment effects, responses were evoked once every 30 sec throughout the entire experiment, and population spike amplitude(PSA) were calculated."}}, "data": [{"smiles": "CN1C(=O)[C@@H](O)[C@H](c2ccccc2)[C@@H]1[C@@H](O)c1ccccc1", "note": "[(−)clausenamide, 3S, 4R, 5R, 6S (−) Levoclausenamide]", "values": [{"measurement": "increase of PS amplitude in comparison with vehicle group", "setting": "[1]; 30-60 min after drug administration", "result": "38.9-63.4%"}, {"measurement": "LTP formation (PS amplitude increase over 30% persisting 40 min)", "setting": "[1]; (−) at 2×10^−6 mol/L, (±) up to 5 times that", "result": "induce LTP formation"}, {"measurement": "PS % at 15′, in comparison with before drug", "setting": "[1]; icv, 2×10^−6 mol/L", "result": 19.8, "unit": "%"}, {"measurement": "PS % at 15′, in comparison with control (vehicle) group", "setting": "[1]; icv, 2×10^−6 mol/L", "result": 10.0, "unit": "%"}, {"measurement": "PS % at 30′, in comparison with before drug", "setting": "[1]; icv, 2×10^−6 mol/L", "result": 48.5, "unit": "%"}, {"measurement": "PS % at 30′, in comparison with control (vehicle) group", "setting": "[1]; icv, 2×10^−6 mol/L", "result": 38.9, "unit": "%"}, {"measurement": "PS % at 45′, in comparison with before drug", "setting": "[1]; icv, 2×10^−6 mol/L", "result": 66.3, "unit": "%"}, {"measurement": "PS % at 45′, in comparison with control (vehicle) group", "setting": "[1]; icv, 2×10^−6 mol/L", "result": 52.7, "unit": "%"}, {"measurement": "PS % at 60′, in comparison with before drug", "setting": "[1]; icv, 2×10^−6 mol/L", "result": 81.2, "unit": "%"}, {"measurement": "PS % at 60′, in comparison with control (vehicle) group", "setting": "[1]; icv, 2×10^−6 mol/L", "result": 63.4, "unit": "%"}, {"measurement": "PS amplitude 30′ after drug", "setting": "[1]; icv, 2×10^−6 mol/L, control 108 ± 7", "result": "150 ± 11"}, {"measurement": "PS amplitude 45′ after drug", "setting": "[1]; icv, 2×10^−6 mol/L, control 110 ± 10", "result": "168 ± 25"}, {"measurement": "PS amplitude 60′ after drug", "setting": "[1]; icv, 2×10^−6 mol/L, control 112 ± 7", "result": "183 ± 30"}, {"measurement": "PS amplitude 15′ after drug", "setting": "[1]; icv, final concentration 2×10^−6 mol/L, control 110 ± 9", "result": "121 ± 9"}, {"measurement": "mitochondrial cytochrome c content after Bax α induced release", "setting": "isolated mitochondria; 10^−5M, Bax alone 50.2±3.65", "result": "67.95±7.6", "unit": "μg/mg pro"}, {"measurement": "mitochondrial cytochrome c content after Bax α induced release", "setting": "isolated mitochondria; 10^−6M, Bax alone 50.2±3.65", "result": "61.7±5.3", "unit": "μg/mg pro"}, {"measurement": "mitochondrial cytochrome c content after Bax α induced release", "setting": "isolated mitochondria; 10^−7M, His-tagged Bax alone 50.2±3.65, no Bax 74.43±5.69", "result": "58.73±3.77", "unit": "μg/mg pro"}, {"measurement": "synapses density in weaning mice", "setting": "weaning mice", "result": "increased synapses density"}, {"measurement": "Number of error, Acquisition", "setting": "[2]; β-AP-treated + drug 8 mg/kg", "result": "0.7 ± 0.24"}, {"measurement": "Number of error, Training", "setting": "[2]; β-AP-treated + drug 8 mg/kg", "result": "3.1 ± 1.22"}, {"measurement": "Number of error, Acquisition", "setting": "[2]; β-AP-treated + drug 40 mg/kg", "result": "1.1 ± 0.27"}, {"measurement": "Number of error, Training", "setting": "[2]; β-AP-treated + drug 40 mg/kg", "result": "4.4 ± 0.87"}, {"measurement": "apoptotic rate", "setting": "[3]; 10^−5M", "result": 9.5, "unit": "%"}, {"measurement": "apoptotic rate", "setting": "[3]; 10^−6M", "result": 28.1, "unit": "%"}, {"measurement": "apoptotic rate", "setting": "[3]; 10^−7M", "result": 36.23, "unit": "%"}, {"measurement": "Ach content in cortex, hippocampus and striatum", "setting": "Ach, ChAT", "result": "increased"}, {"measurement": "ChAT activity in cortex, hippocampus and striatum", "setting": "Ach, ChAT", "result": "increased"}, {"measurement": "potassium channel action", "setting": "potassium channel", "result": "potassium channel blocker"}, {"measurement": "PSA (%), 15 min", "setting": "[4]", "result": "131.8 ± 0.4", "unit": "%"}, {"measurement": "PSA (%), 30 min", "setting": "[4]", "result": "138.5 ± 8.9", "unit": "%"}, {"measurement": "PSA (%), 60 min", "setting": "[4]", "result": "158.1 ± 4.2", "unit": "%"}]}]}
